Data: patent US20240018161A1, “MODULATORS OF CYSTIC FIBROSIS TRANSMEMBRANE CONDUCTANCE REGULATOR” (VERTEX PHARMACEUTICALS INCORPORATED, priority 2020, published 2024)
Read-outs that look alike come from different tables or passages of the source.

Experiments:
[1] = target: CFTR-mediated chloride transport in human intestinal epithelial enteroid cells (Homo sapiens, UniProt P13569); experiment: Membrane potential dye, Enteroid Assay A; assay type: cell-based; conditions: for EC50: read-out: Ent. A EC50
Sequence of CFTR-mediated chloride transport in human intestinal epithelial enteroid cells (P13569 with tags, fused parts or gaps DEL508-508): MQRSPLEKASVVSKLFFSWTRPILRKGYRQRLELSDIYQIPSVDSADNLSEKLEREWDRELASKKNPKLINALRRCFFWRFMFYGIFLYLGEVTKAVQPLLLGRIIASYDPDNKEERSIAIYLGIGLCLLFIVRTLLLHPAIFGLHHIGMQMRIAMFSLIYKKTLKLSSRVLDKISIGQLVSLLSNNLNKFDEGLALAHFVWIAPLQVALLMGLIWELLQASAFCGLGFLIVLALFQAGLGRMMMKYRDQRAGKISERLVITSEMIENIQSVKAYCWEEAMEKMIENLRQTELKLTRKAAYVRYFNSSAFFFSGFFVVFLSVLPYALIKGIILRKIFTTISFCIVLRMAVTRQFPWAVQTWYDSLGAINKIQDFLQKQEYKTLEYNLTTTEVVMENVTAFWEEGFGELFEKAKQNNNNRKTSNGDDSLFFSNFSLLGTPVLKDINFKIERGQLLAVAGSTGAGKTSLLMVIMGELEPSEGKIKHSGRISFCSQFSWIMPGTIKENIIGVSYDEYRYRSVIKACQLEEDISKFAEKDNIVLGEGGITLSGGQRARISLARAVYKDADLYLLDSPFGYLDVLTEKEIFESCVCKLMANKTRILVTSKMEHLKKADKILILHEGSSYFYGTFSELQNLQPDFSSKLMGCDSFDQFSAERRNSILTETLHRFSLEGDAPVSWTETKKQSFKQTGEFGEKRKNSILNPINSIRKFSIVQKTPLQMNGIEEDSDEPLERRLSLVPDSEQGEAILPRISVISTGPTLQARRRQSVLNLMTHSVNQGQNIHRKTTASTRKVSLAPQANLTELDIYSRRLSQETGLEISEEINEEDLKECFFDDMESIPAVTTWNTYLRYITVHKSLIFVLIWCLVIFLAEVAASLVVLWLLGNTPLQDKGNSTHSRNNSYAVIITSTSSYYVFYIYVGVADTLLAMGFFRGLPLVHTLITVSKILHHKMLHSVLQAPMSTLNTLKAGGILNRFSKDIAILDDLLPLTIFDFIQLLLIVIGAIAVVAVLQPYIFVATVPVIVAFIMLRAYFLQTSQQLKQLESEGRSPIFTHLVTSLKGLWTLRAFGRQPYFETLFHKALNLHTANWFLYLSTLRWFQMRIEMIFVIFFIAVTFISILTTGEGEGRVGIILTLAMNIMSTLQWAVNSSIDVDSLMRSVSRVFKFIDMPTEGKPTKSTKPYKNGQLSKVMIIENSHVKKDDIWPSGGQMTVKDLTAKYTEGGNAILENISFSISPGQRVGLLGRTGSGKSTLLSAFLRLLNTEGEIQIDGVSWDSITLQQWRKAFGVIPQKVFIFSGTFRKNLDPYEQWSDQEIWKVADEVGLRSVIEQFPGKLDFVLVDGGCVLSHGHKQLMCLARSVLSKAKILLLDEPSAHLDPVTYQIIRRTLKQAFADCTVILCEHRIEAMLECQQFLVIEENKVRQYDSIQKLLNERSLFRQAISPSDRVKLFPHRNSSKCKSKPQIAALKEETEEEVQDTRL
Outline: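 Membrane potential dye (20 μM methyl oxonol, with 30 μM CaCCinh-A01 and 30 μM Chicago Sky Blue) loaded 25 min at room temperature into ROCK-inhibitor-seeded human enteroid cells. Chloride-free stimulation buffer triggered transport, followed by 15 min fluorescence. % Activity relative to 3 μM/3 μM/300 nM triple-combination control.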

[2] = enteroid cells incubated with test compound 18-24 hours, acute 10 μM forskolin and 300 nM N-[2,4-bis(1,1-dimethylethyl)-5-hydroxyphenyl]-1,4-dihydro-4-oxoquinoline-3-carboxamide
[3] = percentage of chloride transport of triple combination control (3 μM N-[(6-amino-2-pyridyl)sulfonyl]-6-(3-fluoro-5-isobutoxy-phenyl)-2-[(4S)-2,2,4-trimethylpyrrolidin-1-yl]pyridine-3-carboxamide based)
[4] = from Cc1cccc(C)c1-c1cc(OCC2c3ccc(C(C)(C)C)cc3CNC2C)nc(NS(=O)(=O)c2cccc(C(=O)O)c2)n1, amide bond, 14-membered ring, HATU/TEA, DMF, 44.8 mM, 50.0 °C, 0.5 h, 2 steps

For `Cc1cccc(C)c1-c1cc2nc(n1)NS(=O)(=O)c1cccc(c1)C(=O)N1Cc3cccnc3C(C1)O2` (single isomer, unassigned) [Compound 195, 12-(2,6-dimethylphenyl)-15-oxa-8λ^6-thia-1,9,11,18,25-pentaazapentacyclo[14.7.1.13,7.110,14.017,22]hexacosa-3,5,7(26),10(25),11,13,17,19,21-nonaene-2,8,8-trione], the EC50 [1, 2] was 3000 to 30000 nM, the “Ent. A Max Activity (%)” value [1, 3] was “++ (++ is 30-60%)” and the ring closure, yield after HPLC (from Cc1cccc(C)c1-c1cc(OC2CNCc3cccnc32)nc(NS(=O)(=O)c2cccc(C(=O)O)c2)n1, amide bond, 13-membered ring, HATU/DIEA, DMF, 8.0 mM, 1.0 h) was 76%.

For `Cc1cccc(C)c1-c1cc2nc(n1)NS(=O)(=O)c1cccc(c1)C(=O)N1CCN(C(=O)OCc3ccccc3)CC(O2)[C@H]1C` (single isomer, unassigned; diastereomer 2), the ring closure, yield after HPLC (from Cc1cccc(C)c1-c1cc(Cl)nc(NS(=O)(=O)c2cccc(C(=O)N3CCN(C(=O)OCc4ccccc4)CC(O)[C@H]3C)c2)n1, snar bond, 13-membered ring, NaH, DMF, 30.1 mM, 0.0 °C, 1.5 h) was 7%.

`Cc1cccc(C)c1-c1cc2nc(n1)NS(=O)(=O)c1cccc(c1)C(=O)N1CCN(C(C)C(C)(C)C)C[C@H](C1)O2` (single isomer, unassigned; diastereomer 2) showed a ring closure, yield after HPLC (from Cc1cccc(C)c1-c1cc(Cl)nc(NS(=O)(=O)c2cccc(C(=O)N3CCN(C(C)C(C)(C)C)C[C@@H](O)C3)c2)n1, snar bond, 13-membered ring, NaH, DMF, 31.4 mM, 0.0 °C, 7.0 h) of 33%.

`Cc1cccc(C)c1-c1cc2nc(n1)NS(=O)(=O)c1cccc(c1)C(=O)N1Cc3cc(C(C)(C)C)ccc3C(CO2)C1C` (single isomer, unassigned; enantiomer 1) gave a ring closure, yield after HPLC [4] of 2%.

`Cc1cccc(C)c1-c1cc2nc(n1)NS(=O)(=O)c1cccc(c1)C(=O)N1Cc3cc(C(C)(C)C)ccc3C(CO2)C1C` (single isomer, unassigned; enantiomer 2) showed a ring closure, yield after HPLC [4] of 1%.

For `Cc1cccc(C)c1-c1cc2nc(n1)NS(=O)(=O)c1cccc(n1)C(=O)N1CCN(CCC(C)(C)C)CC(C1)O2` (centres unmarked) [Compound 70, 18-(3,3-Dimethylbutyl)-12-(2,6-dimethylphenyl)-15-oxa-8λ^6-thia-1,9,11,18,22,23-hexaazatetracyclo[14.4.1.13,7.110,14]tricosa-3,5,7(23),10,12,14(22)-hexaene-2,8,8-trione], the “Ent. A Max Activity (%)” value ([1]; Enteroid Assay A) was “+ (+ is <30%)” and the ring closure, yield after HPLC (from Cc1cccc(C)c1-c1cc(OC2CNCCN(CCC(C)(C)C)C2)nc(NS(=O)(=O)c2cccc(C(=O)O)n2)n1, amide bond, 13-membered ring, HATU/DIEA, DMF, 78.0 mM, 25.0 °C, 0.5 h, 2 steps) was 1%.

With `Cc1cccc(C)c1-c1cc2nc(n1)NS(=O)(=O)c1cccc(c1)C(=O)N1CCN(C(C)(C)C)C[C@H](C1)O2` [Compound 71, (16R)-18-tert-Butyl-12-(2,6-dimethylphenyl)-15-oxa-8λ^6-thia-1,9,11,18,22-pentaazatetracyclo[14.4.1.13,7.110,14]tricosa-3(23),4,6,10(22),11,13-hexaene-2,8,8-trione] the “Ent. A Max Activity (%)” value ([1]; Enteroid Assay A) was “+++ (+++ is >600%)”, the EC50 ([1]; Enteroid Assay A) was < 1000 nM and the ring closure, yield after HPLC (from Cc1cccc(C)c1-c1cc(Cl)nc(NS(=O)(=O)c2cccc(C(=O)N3CCN(C(C)(C)C)C[C@@H](O)C3)c2)n1, snar bond, 13-membered ring, NaH, DMF, 33.9 mM, 25.0 °C, 4.17 h) was 37%.

With `Cc1cccc(C)c1-c1cc2nc(n1)NS(=O)(=O)c1cccc(c1)C(=O)N1CC(CN(Cc3ccccc3)[C@@H](CC(C)C)C1)O2` (stereo partly drawn) [Compound 107, (19S)-18-Benzyl-12-(2,6-dimethylphenyl)-19-(2-methylpropyl)-15-oxa-8λ^6-thia-1,9,11,18,22-pentaazatetracyclo[14.4.1.13,7.110,14]tricosa-3(23),4,6,10(22),11,13-hexaene-2,8,8-trione] the “Ent. A Max Activity (%)” value ([1]; Enteroid Assay A) was “+++ (+++ is >600%)”, the EC50 ([1]; Enteroid Assay A) was < 1000 nM and the ring closure, yield after HPLC (from Cc1cccc(C)c1-c1cc(Cl)nc(NS(=O)(=O)c2cccc(C(=O)N3CC(O)CN(Cc4ccccc4)[C@@H](CC(C)C)C3)c2)n1, snar bond, 13-membered ring, NaH, DMF, 29.1 mM, 0.0 °C, 4.0 h) was 3%.

With `Cc1cccc(C)c1-c1cc2nc(n1)NS(=O)(=O)c1cccc(c1)NC(=O)CN1CCCC(C1)O2` (centres unmarked) [Compound 160, 5-(2,6-Dimethylphenyl)-2-oxa-9λ^6-thia-6,8,15,18,24-pentaazatetracyclo[16.3.1.13,7.110,14]tetracosa-3(24),4,6,10,12,14(23)-hexaene-9,9,16-trione] the EC50 [1, 2] was 1000 to 3000 nM, the “Ent. A Max Activity (%)” value [1, 3] was “+ (+ is <300%)” and the ring closure, yield after HPLC (from Cc1cccc(C)c1-c1cc(OC2CCCN(CC(=O)Nc3cccc(S(N)(=O)=O)c3)C2)nc(Cl)n1, cn_pd bond, 15-membered ring, Pd(OAc)2/Xantphos/Cs2CO3, dioxane, 20.1 mM, 100.0 °C, 16.0 h) was 17%.

With `Cc1cccc(C)c1-c1cc2nc(n1)NS(=O)(=O)c1cccc(c1)C(=O)N1CCN(CCC3(C(F)(F)F)CC3)CC1CO2` (centres unmarked) [Compound 170, 13-(2,6-Dimethylphenyl)-6-{2-[1-(trifluoromethyl)cyclopropyl]ethyl}-10-oxa-17λ^6-thia-3,6,14,16,23-pentaazatetracyclo[16.3.1.111,15.03,8]tricosa-1(22),11,13,15(23),18,20-hexaene-2,17,17-trione] the EC50 [1, 2] was < 1000 nM, the “Ent. A Max Activity (%)” value [1, 3] was “++ (++ is 30-60%)” and the ring closure, yield after HPLC (from Cc1cccc(C)c1-c1cc(OCC2CN(CCC3(C(F)(F)F)CC3)CCN2)nc(NS(=O)(=O)c2cccc(C(=O)O)c2)n1, amide bond, 13-membered ring, HATU/DIEA, DMF, 18.7 mM, 25.0 °C, 1.0 h, 3 steps) was 14%.

For `Cc1cccc(C)c1-c1cc2nc(n1)NS(=O)(=O)c1cccc(c1)C(=O)N1CCN(C(=O)OC(C)(C)C)CC1C(C)O2` (centres unmarked) [Compound 173, tert-Butyl 13-(2,6-dimethylphenyl)-9-methyl-2,17,17-trioxo-10-oxa-17λ^6-thia-3,6,14,16,23-pentaazatetracyclo[16.3.1.111,15.03,8]tricosa-1(22),11,13,15(23),18,20-hexaene-6-carboxylate], the EC50 [1, 2] was 1000 to 3000 nM, the “Ent. A Max Activity (%)” value [1, 3] was “++ (++ is 30-60%)” and the ring closure, yield after HPLC (from Cc1cccc(C)c1-c1cc(OC(C)C2CN(C(=O)OC(C)(C)C)CCN2)nc(NS(=O)(=O)c2cccc(C(=O)O)c2)n1, amide bond, 13-membered ring, HATU/DIEA, DMF, 10.9 mM, 25.0 °C, 0.5 h) was 19%.

In the case of `Cc1cccc(C)c1-c1cc2nc(n1)NS(=O)(=O)c1cccc(c1)C(=O)N1CCN(C(=O)OC(C)(C)C)CC1C(Cc1ccccc1)O2` (centres unmarked) [Compound 175, tert-butyl 9-benzyl-13-(2,6-dimethylphenyl)-2,17,17-trioxo-10-oxa-17λ^6-thia-3,6,14,16,23-pentaazatetracyclo[16.3.1.111,15.03,8]tricosa-1(22),11,13,15(23),18,20-hexaene-6-carboxylate], the “Ent. A Max Activity (%)” value ([1]; Enteroid Assay A) is reported as “++ (++ is 30-60%)”, the EC50 ([1]; Enteroid Assay A) is reported as < 1000 nM and the ring closure, yield after HPLC (from Cc1cccc(C)c1-c1cc(OC(Cc2ccccc2)C2CN(C(=O)OC(C)(C)C)CCN2)nc(NS(=O)(=O)c2cccc(C(=O)O)c2)n1, amide bond, 13-membered ring, HATU/DIEA, DMF, 10.8 mM, 25.0 °C, 0.083 h) is reported as 55%.

For `Cc1cccc(C)c1-c1cc2nc(n1)NS(=O)(=O)c1cccc(c1)C(=O)N1Cc3cc(C(C)(C)C)ccc3[C@@H](O2)[C@H]1CC(C)(C)C` [Compound 189, (16R,24R)-20-tert-butyl-12-(2,6-dimethylphenyl)-24-(2,2-dimethylpropyl)-15-oxa-8λ^6-thia-1,9,11,25-tetraazapentacyclo[14.7.1.13,7.110,14.017,22]hexacosa-3(26),4,6,10(25),11,13,17,19,21-nonaene-2,8,8-trione], the EC50 ([1]; Enteroid Assay A) was < 1000 nM and the ring closure, yield after HPLC (from Cc1cccc(C)c1-c1cc(O[C@@H]2c3ccc(C(C)(C)C)cc3CN[C@@H]2CC(C)(C)C)nc(NS(=O)(=O)c2cccc(C(=O)O)c2)n1, amide bond, 13-membered ring, HATU/NaOtBu, DMF/THF, 0.25 h, 2 steps) was 0.35%.

With `Cc1ccccc1-c1cc2nc(n1)NS(=O)(=O)c1cccc(c1)C(=O)N1Cc3ccccc3[C@@H](O2)[C@H]1CC(C)C` [Compound 192, (16R,24R)-12-(2-Methylphenyl)-24-(2-methylpropyl)-15-oxa-8λ^6-thia-1,9,11,25-tetraazapentacyclo[14.7.1.13,7.110,14.017,22]hexacosa-3(26),4,6,10,12,14(25),17,19,21-nonaene-2,8,8-trione] the EC50 ([1]; Enteroid Assay A) was < 1000 nM and the ring closure, yield after HPLC (from Cc1ccccc1-c1cc(O[C@@H]2c3ccccc3CN[C@@H]2CC(C)C)nc(NS(=O)(=O)c2cccc(C(=O)O)c2)n1, amide bond, 13-membered ring, HATU/DIEA, DMF, 424.0 mM, 0.5 h, 3 steps) was 9%.

With `Cc1cccc(C)c1-c1cc2nc(n1)NS(=O)(=O)c1cccc(c1)C(=O)N1Cc3cnccc3C(C1)O2` (centres unmarked) [Compound 194, 12-(2,6-Dimethylphenyl)-15-oxa-8λ^6-thia-1,9,11,20,25-pentaazapentacyclo[14.7.1.13,7.110,14.017,22]hexacosa-3(26),4,6,10,12,14(25),17,19,21-nonaene-2,8,8-trione] the EC50 [1, 2] was 3000 to 30000 nM, the “Ent. A Max Activity (%)” value [1, 3] was “++ (++ is 30-60%)” and the ring closure, yield after HPLC (from Cc1cccc(C)c1-c1cc(OC2CNCc3cnccc32)nc(NS(=O)(=O)c2cccc(C(=O)O)c2)n1, amide bond, 13-membered ring, HATU/DIEA, DMF, 19.0 mM, 0.5 h, 3 steps) was 1%.

`Cc1cccc(C)c1-c1cc2nc(n1)NS(=O)(=O)c1cccc(c1)C(=O)N1CC[C@H](C1)O2` [Compound 214, (3R)-17-(2,6-Dimethylphenyl)-2-oxa-13λ^6-thia-6,14,16,19-tetraazatetracyclo[13.3.1.13,6.18,12]henicosa-1(19),8(20),9,11,15,17-hexaene-7,13,13-trione] showed a ring closure, yield after HPLC (from Cc1cccc(C)c1-c1cc(O[C@@H]2CCNC2)nc(NS(=O)(=O)c2cccc(C(=O)O)c2)n1, amide bond, 13-membered ring, HATU/TEA, DMF, 56.8 mM, 25.0 °C, 1.0 h) of 17%.
